From patent EP4603105A1, “PHARMACEUTICAL COMPOSITION CONTAINING CYCLIC COMPOUND HAVING SELECTIVE KRAS INHIBITORY EFFECT AGAINST HRAS AND NRAS” (CHUGAI SEIYAKU KABUSHIKI KAISHA, priority 2022, dated 2024)
Where two headings read alike, the source gives them in different places.

Key:
HRAS wild-type protein = HRAS wild-type protein (Homo sapiens, UniProt P01112); assay: Binding to HRAS by surface plasmon resonance (SPR), KD and KD ratio to KRAS
Outline: (§1)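 SPR, 30°C: Avi-biotin RAS·GDP captured via Biotin CAPture (~100–300 RU); running buffer HBS pH 7.4, 1 mM DTT, 10 mM MgCl2, 0.01% Tween 20, 10 µM GDP, 4% DMSO. Single-cycle kinetics, 100 µL/min, 75 s injections; 1:1 model → KD.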

[1] = molecular target: GDP-bound NRAS wild-type protein (Homo sapiens, UniProt P01111); assay: Binding to NRAS by surface plasmon resonance (SPR), KD and KD ratio to KRAS
GDP-bound NRAS wild-type protein, sequence (P01111 whole entry): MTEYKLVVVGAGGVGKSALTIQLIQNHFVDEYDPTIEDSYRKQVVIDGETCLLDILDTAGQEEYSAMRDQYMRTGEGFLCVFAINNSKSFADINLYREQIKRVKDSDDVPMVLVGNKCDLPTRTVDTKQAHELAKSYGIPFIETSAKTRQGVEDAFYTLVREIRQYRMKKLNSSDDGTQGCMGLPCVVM
Outline: as §1

[2] = molecular target: GDP-bound KRAS wild-type protein (Homo sapiens, UniProt P01116); assay: Binding to KRAS by surface plasmon resonance (SPR), dissociation constant KD
GDP-bound KRAS wild-type protein, sequence (P01116 1-188 isoform P01116-2): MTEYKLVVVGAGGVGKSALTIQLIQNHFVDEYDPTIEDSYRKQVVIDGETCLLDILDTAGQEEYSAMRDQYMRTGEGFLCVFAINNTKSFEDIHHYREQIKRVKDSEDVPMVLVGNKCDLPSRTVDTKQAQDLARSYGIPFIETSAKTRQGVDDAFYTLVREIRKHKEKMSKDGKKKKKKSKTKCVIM
Outline: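 Biotinylated GDP-bound RAS was captured at about 100–300 RU. Running buffer: HBS pH 7.4, 10 mM MgCl2, 10 µM GDP, 1 mM DTT, 0.01% Tween 20, 4% DMSO.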

[3] = test system: human lung cancer strain NCI-H441; assay: NCI-H441 cell proliferation inhibitory activity (CellTiter-Glo, 4 days); type: cell-based; settings: read-out: NCl-H441 IC50
Outline: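 Proliferation was scored by […] measured after the reagent was added to cultures kept at 37°C in 5% carbon dioxide.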

[4] = ratio of KD for HRAS wild-type protein to KD for KRAS
[5] = ratio of KD for GDP-bound NRAS wild-type protein to KD for KRAS
[6] = ratio of KD with respect to HRAS wild-type protein to KD with respect to KRAS
[7] = ratio of KD with respect to GDP-bound NRAS wild-type protein to KD with respect to KRAS
[8] = Single Cycle Kinetics, 1:1 binding model
[9] = 50% proliferation inhibitory concentration, four days

HRAS wild-type protein, sequence (P01112 whole entry): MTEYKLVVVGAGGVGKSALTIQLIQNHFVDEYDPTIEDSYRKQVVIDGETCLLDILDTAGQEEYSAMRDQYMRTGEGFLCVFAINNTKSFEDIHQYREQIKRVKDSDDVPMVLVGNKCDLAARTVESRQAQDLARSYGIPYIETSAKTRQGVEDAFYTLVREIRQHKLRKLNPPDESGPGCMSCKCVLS

Structure (SMILES) | HRAS /KRAS (HRAS wild-type protein; [4]) | NRAS /KRAS [1, 5] | Kd ([2]; 1:1 binding model) [nM] | IC50 ([3]; NCI-H441 cells, 4 days) [nM] | HRAS /KRAS (HRAS wild-type protein; [6]) | NRAS /KRAS [1, 7] | Kd [2, 8] [nM] | IC50 [3, 9] [nM] | Kd ([2]; Single Cycle Kinetics) [nM]
CCC[C@H]1C(=O)N[C@@H]([C@@H](C)CC)C(=O)N(C)CC(=O)N(C)[C@H]2C/C=C\CCN(C2=O)[C@@H](Cc2ccc(C(F)(F)F)cc2)C(=O)N(C)CC(=O)N[C@@H](CCc2ccc(Cl)c(Cl)c2)C(=O)N2C[C@H](OCC)C[C@H]2C(=O)NC2(CC(C)(C)C2)C(=O)N(C)[C@@H](CC(C)(C)C)C(=O)N(C)[C@H](C(=O)N(C)C)CC(=O)N1C [PP2738] | A (a compound having 10 or more and less than 20 is denoted as A) | AA (a compound having 20 or more is denoted as AA) | 0.17 | 8.5 |  |  |  |  | 
CCO[C@@H]1C[C@H]2C(=O)NC3(CC(C)(C)C3)C(=O)N(C)[C@@H](C(CC)CC)C(=O)N(C)[C@H](C(=O)N(C)C)CC(=O)N(C)[C@@H](COC)C(=O)N[C@@H]([C@@H](C)CC)C(=O)N(C3CC3)CC(=O)N(C)[C@H]3C/C=C\CCN(C3=O)[C@@H](CC3CCCCC3)C(=O)N(C)CC(=O)N[C@@H](CCc3cc(F)c(C(F)(F)F)c(F)c3)C(=O)N2C1 [PP2564] | A (a compound having 10 or more and less than 20 is denoted as A) | A (a compound having 10 or more and less than 20 is denoted as A) | 7.6 | 222 |  |  |  |  | 
CCO[C@@H]1C[C@H]2C(=O)NC3(CCC3)C(=O)N(C)[C@@H](C3CCCC3)C(=O)N(C)[C@H](C(=O)N3CCCC3)CC(=O)N(C)[C@@H](CC)C(=O)N[C@@H]([C@@H](C)CC)C(=O)N(C)CC(=O)N(C)[C@H]3C/C=C\CCN(C3=O)[C@@H](CC3CCC(F)(F)CC3)C(=O)N(C)CC(=O)N[C@@H](CCc3cc(F)c(C(F)(F)F)c(F)c3)C(=O)N2C1 [PP1442] |  |  |  |  | A (a compound having 10 or more and less than 20 is denoted as A) | A (a compound having 10 or more and less than 20 is denoted as A) | 0.13 | 48.3 | 
CCC[C@H]1C(=O)N[C@@H]([C@@H](C)CC)C(=O)N(C)CC(=O)N(C)[C@H]2C/C=C\CCN(C2=O)[C@@H](Cc2ccc(C(F)(F)F)cc2)C(=O)N(C)CC(=O)N[C@@H](CCc2cc(F)c(C(F)(F)F)c(F)c2)C(=O)N2CC3(CC3)C[C@H]2C(=O)NC2(CCC2)C(=O)N(C)[C@@H]([C@@H](C)CC)C(=O)N(C)[C@H](C(=O)N(C)C)CC(=O)N1C [PP3404] | A (a compound having 10 or more and less than 20 is denoted as A) | AA (a compound having 20 or more is denoted as AA) |  | 12.8 |  |  |  |  | 0.2
CCC(CC)[C@H]1C(=O)N(C)[C@H](C(=O)N(C)C)CC(=O)N(C)[C@@H](COC)C(=O)N[C@@H]([C@@H](C)CC)C(=O)N(C)CC(=O)N(C)[C@H]2C/C=C\CCN(C2=O)[C@@H](CC2CCC(F)(F)CC2)C(=O)N(C)CC(=O)N[C@@H](CCc2ccc(C(F)(F)F)c(OC)c2)C(=O)N2C[C@@H](C)C[C@H]2C(=O)NC2(CC(C)(C)C2)C(=O)N1C [PP2442] | A (a compound having 10 or more and less than 20 is denoted as A) | A (a compound having 10 or more and less than 20 is denoted as A) | 0.97 | 79.7 |  |  |  |  | 
CCCN(C)C(=O)[C@@H]1CC(=O)N(C)[C@@H](CC(C)C)C(=O)N[C@@H]([C@@H](C)CC)C(=O)N2CCC[C@H]2C(=O)N(C)[C@H]2C/C=C\CCN(C2=O)[C@@H](Cc2ccc(C(F)(F)F)cc2)C(=O)N(C)CC(=O)N[C@@H](CCc2cc(F)c(C(F)(F)F)c(F)c2)C(=O)N2C[C@H](OCC)C[C@H]2C(=O)N[C@]2(C[C@H](OC)C2)C(=O)N(C)[C@@H](C2CCCC2)C(=O)N1C [PP3355] | A (a compound having 10 or more and less than 20 is denoted as A) | A (a compound having 10 or more and less than 20 is denoted as A) |  | 45.5 |  |  |  |  | 1.1
CCC[C@H]1C(=O)N[C@@H]([C@@H](C)CC)C(=O)N(C2CC2)CC(=O)N(C)[C@H]2C/C(F)=C\CCN(C2=O)[C@@H](Cc2ccc(C)cc2)C(=O)N(C)CC(=O)N[C@@H](CCc2ccc(C(F)(F)F)c(OC)c2)C(=O)N2C[C@H](OCC)C[C@H]2C(=O)N(C)C2(CCC2)C(=O)N(C)[C@@H](C2CCCC2)C(=O)N(C)[C@H](C(=O)N(C)C)CC(=O)N1C [PP3525] | B (a compound having 3 or more and less than 10 is denoted as B) | B (a compound having 3 or more and less than 10 is denoted as B) |  | 3.4 |  |  |  |  | 0.22
CC[C@H](C)[C@@H]1NC(=O)[C@H](CC(C)C)N(C)C(=O)C[C@@H](C(=O)N2CCOCC2)N(C)C(=O)[C@H](C2CCCC2)N(C)C(=O)C2(CCC2)NC(=O)[C@@H]2C[C@@H](OCC(C)C)CN2C(=O)[C@H](CCc2cc(F)c(C(F)(F)F)c(F)c2)NC(=O)CN(C)C(=O)[C@H](Cc2ccc(C(F)(F)F)cc2)N2CCCC[C@@H](C2=O)N(C)C(=O)CN(C)C1=O [PP1160] |  |  |  |  | B (a compound having 3 or more and less than 10 is denoted as B) | B (a compound having 3 or more and less than 10 is denoted as B) | 0.032 | 18.4 | 
CCO[C@@H]1C[C@H]2C(=O)NC3(CCCC3)C(=O)N(C)[C@@H](C3CCCC3)C(=O)N(C)[C@H](C(=O)N(C)C)CC(=O)N(C)[C@@H](CC)C(=O)N[C@@H]([C@@H](C)CC)C(=O)N(C)CC(=O)N(C)[C@H]3CC[C@@H](C)CN(C3=O)[C@@H](Cc3ccc(C(F)(F)F)cc3)C(=O)N(C)CC(=O)N[C@@H](CCc3ccc(C(F)(F)F)c(Cl)c3)C(=O)N2C1 [PP1376] |  |  |  |  | B (a compound having 3 or more and less than 10 is denoted as B) | B (a compound having 3 or more and less than 10 is denoted as B) | 0.037 | 3.5 | 
C=CC[C@H]1C(=O)N(C)[C@H](C(=O)N(C)C)CC(=O)N(C)[C@@H](CCC)C(=O)N[C@@H]([C@@H](C)CC)C(=O)N(C)CC(=O)N(C)[C@H]2C/C=C\CCN(C2=O)[C@@H](Cc2ccc(C(F)(F)F)cc2)C(=O)N(C)CC(=O)N[C@@H](CCc2cc(F)c(C(F)(F)F)c(F)c2)C(=O)N2C[C@H](OCC)C[C@H]2C(=O)N(C)C2(CCC2)C(=O)N1C [PP3336] | A (a compound having 10 or more and less than 20 is denoted as A) | A (a compound having 10 or more and less than 20 is denoted as A) |  | 66.1 |  |  |  |  | 1.5
CCC[C@H]1C(=O)N[C@@H]([C@@H](C)CC)C(=O)N(C2CC2)CC(=O)N(C)[C@H]2C/C(F)=C\CCN(C2=O)[C@@H](Cc2ccc(C)cc2)C(=O)N(C)CC(=O)N[C@@H](CCc2cc(F)c(C(F)(F)F)c(F)c2)C(=O)N2C[C@H](OCC)C[C@H]2C(=O)NC2(CCC2)C(=O)N(C)[C@@H](C2CCCC2)C(=O)N(C)[C@H](C(=O)N(C)C)CC(=O)N1C [PP3519] | B (a compound having 3 or more and less than 10 is denoted as B) | B (a compound having 3 or more and less than 10 is denoted as B) |  | 22.3 |  |  |  |  | 0.87
CC[C@H](C)[C@@H]1NC(=O)[C@H](COC)N(C)C(=O)C[C@@H](C(=O)N(C)C)N(C)C(=O)[C@H](C2CCCCC2)N(C)C(=O)C2(CC(C)(C)C2)NC(=O)[C@@H]2C[C@@H](OC(C)C)CN2C(=O)[C@H](CCc2cc(F)c(C(F)(F)F)c(F)c2)NC(=O)CN(C)C(=O)[C@H](Cc2ccc(C)cc2)N2CC/C=C\C[C@@H](C2=O)N(C)C(=O)CN(C)C1=O [PP2660] | A (a compound having 10 or more and less than 20 is denoted as A) | A (a compound having 10 or more and less than 20 is denoted as A) | 0.18 | 14.3 |  |  |  |  | 
CCO[C@@H]1C[C@H]2C(=O)NC3(CC(C)(C)C3)C(=O)N(C)[C@@H](C(CC)CC)C(=O)N(C)[C@H](C(=O)N(C)C)CC(=O)N(C)[C@@H](COC)C(=O)N[C@@H]([C@@H](C)CC)C(=O)N(C3CC3)CC(=O)N(C)[C@H]3C/C=C\CCN(C3=O)[C@@H](CC3CCC(F)(F)CC3)C(=O)N(C)CC(=O)N[C@@H](CCc3cc(F)c(C(F)(F)F)c(F)c3)C(=O)N2C1 [PP2568] | B (a compound having 3 or more and less than 10 is denoted as B) | A (a compound having 10 or more and less than 20 is denoted as A) | 1.2 | 23.4 |  |  |  |  | 
C=CC[C@H]1C(=O)N(C)[C@H](C(=O)N(C)C)CC(=O)N(C)[C@@H](CCC)C(=O)N[C@@H]([C@@H](C)CC)C(=O)N(C)CC(=O)N(C)[C@H]2C/C=C\CCN(C2=O)[C@@H](Cc2ccc(C(F)(F)F)cc2)C(=O)N(C)CC(=O)N[C@@H](CCc2ccc(C(F)(F)F)c(OC)c2)C(=O)N2C[C@H](OCC)C[C@H]2C(=O)N(C)C2(CCC2)C(=O)N1C [PP3330] | A (a compound having 10 or more and less than 20 is denoted as A) | A (a compound having 10 or more and less than 20 is denoted as A) |  | 80.4 |  |  |  |  | 1.1
